Data published in ChEMBL document CHEMBL5625238, “Lead generation from N-[benzyl(4-phenylbutyl)carbamoyl]amino acid as a novel LPA1 antagonist for the treatment of systemic sclerosis” (Eur J Med Chem, 2023).
Each block holds one compound with its values, some of them ahead of it.

Tests used:
[1] = target: Lysophosphatidic acid receptor 1 (Homo sapiens, UniProt Q92633); experiment: Antagonist activity at human LPA1 receptor stably expressed in rat RH7777 cells assessed as reduction in LPA-induced intracellular Ca2+ concentration preincubated for 30 mins followed by LPA addition measured by Fluo-4 probe based fluorescence assay
[2] = species: Mus musculus; experiment: animal or person; settings: C57BL/6, po, 672 h, read-out: INH
Description: Anti-fibrotic activity in C57BL/6 mouse model of bleomycin-induced skin fibrosis assessed as inhibition of collagen production by measuring reduction in hydroxyproline content at 2 mg/kg, po administered once daily via gavage for 28 days measured post last dose relative to control

[3] = Plasma concentration in LPA-induced C57BL/6J mouse at 30 mg/kg, po administered via gavage and measured after 8 hrs by LC-MS/MS analysis; type: ADME, organism-based
[4] = target: Lysophosphatidic acid receptor 1 (Mus musculus) (UniProt P61793); experiment: In vivo antagonist activity at LPA1 receptor in C57BL/6J mouse assessed as inhibition of LPA-induced histamine release from mast cells at 10 mg/kg, po administered via gavage and measured after 8 hrs by enzyme immunoassay relative to control; type: functional, organism-based
[5] = target: Lysophosphatidic acid receptor 1 (Mus musculus) (UniProt P61793); experiment: In vivo antagonist activity at LPA1 receptor in C57BL/6J mouse assessed as inhibition of LPA-induced histamine release from mast cells at 100 mg/kg, po administered via gavage and measured after 1 hr by enzyme immunoassay relative to control; type: functional, organism-based
[6] = Plasma concentration in LPA-induced C57BL/6J mouse at 100 mg/kg, po administered via gavage and measured after 4 hrs by LC-MS/MS analysis; type: ADME, organism-based
[7] = Plasma concentration in LPA-induced C57BL/6J mouse at 10 mg/kg, po administered via gavage and measured after 1 hr by LC-MS/MS analysis; type: ADME, organism-based
[8] = Plasma concentration in LPA-induced C57BL/6J mouse at 30 mg/kg, po administered via gavage and measured after 1 hr by LC-MS/MS analysis; type: ADME, organism-based
[9] = target: Lysophosphatidic acid receptor 1 (Mus musculus) (UniProt P61793); experiment: In vivo antagonist activity at LPA1 receptor in C57BL/6J mouse assessed as inhibition of LPA-induced histamine release from mast cells at 30 mg/kg, po administered via gavage and measured after 8 hrs by enzyme immunoassay relative to control; type: functional, organism-based
[10] = species: Mus musculus; experiment: animal or person; settings: C57BL/6, po, 672 h, read-out: INH; remark: listed apart in the source
Description: Anti-fibrotic activity in C57BL/6 mouse model of bleomycin-induced skin fibrosis assessed as inhibition of collagen production by measuring reduction in hydroxyproline content at 30 mg/kg, po administered twice daily via gavage for 28 days measured post last dose relative to control

[11] = target: Lysophosphatidic acid receptor 1 (Mus musculus) (UniProt P61793); experiment: In vivo antagonist activity at LPA1 receptor in C57BL/6J mouse assessed as inhibition of LPA-induced histamine release from mast cells at 100 mg/kg, po administered via gavage and measured after 8 hrs by enzyme immunoassay relative to control; type: functional, organism-based
[12] = Plasma concentration in LPA-induced C57BL/6J mouse at 10 mg/kg, po administered via gavage and measured after 4 hrs by LC-MS/MS analysis; type: ADME, organism-based
[13] = Plasma concentration in LPA-induced C57BL/6J mouse at 10 mg/kg, po administered via gavage and measured after 8 hrs by LC-MS/MS analysis; type: ADME, organism-based
[14] = system: Mus musculus; experiment: Anti-hypertrophic activity in po dosed C57BL/6 mouse model of bleomycin-induced skin fibrosis assessed as reduction in skin thickness administered twice daily via gavage for 28 days measured post last dose by caliper method; type: functional, organism-based; settings: dose 10-100 mg/kg, time 28.0 day
[15] = Plasma concentration in LPA-induced C57BL/6J mouse at 100 mg/kg, po administered via gavage and measured after 8 hrs by LC-MS/MS analysis; type: ADME, organism-based
[16] = species: Mus musculus; experiment: animal or person; settings: C57BL/6, po, 672 h, read-out: INH; remark: listed apart in the source
Description: Anti-fibrotic activity in C57BL/6 mouse model of bleomycin-induced skin fibrosis assessed as inhibition of collagen production by measuring reduction in hydroxyproline content at 10 mg/kg, po administered twice daily via gavage for 28 days measured post last dose relative to control

[17] = target: Lysophosphatidic acid receptor 1 (Mus musculus) (UniProt P61793); experiment: In vivo antagonist activity at LPA1 receptor in C57BL/6J mouse assessed as inhibition of LPA-induced histamine release from mast cells at 30 mg/kg, po administered via gavage and measured after 1 hr by enzyme immunoassay relative to control; type: functional, organism-based
[18] = system: Mus musculus; experiment: Anti-fibrotic activity in po dosed C57BL/6 mouse model of bleomycin-induced skin fibrosis assessed as inhibition of collagen production by measuring reduction in hydroxyproline content administered twice daily via gavage for 28 days measured post last dose; type: functional, organism-based; settings: dose 10-100 mg/kg, time 28.0 day
[19] = Plasma concentration in LPA-induced C57BL/6J mouse at 100 mg/kg, po administered via gavage and measured after 1 hr by LC-MS/MS analysis; type: ADME, organism-based
[20] = species: Mus musculus; experiment: animal or person; settings: C57BL/6, po, 672 h, read-out: INH; remark: listed apart in the source
Description: Anti-fibrotic activity in C57BL/6 mouse model of bleomycin-induced skin fibrosis assessed as inhibition of collagen production by measuring reduction in hydroxyproline content at 100 mg/kg, po administered twice daily via gavage for 28 days measured post last dose relative to control

[21] = target: Lysophosphatidic acid receptor 1 (Mus musculus) (UniProt P61793); experiment: In vivo antagonist activity at LPA1 receptor in C57BL/6J mouse assessed as inhibition of LPA-induced histamine release from mast cells at 10 mg/kg, po administered via gavage and measured after 4 hrs by enzyme immunoassay relative to control; type: functional, organism-based
[22] = Plasma concentration in LPA-induced C57BL/6J mouse at 30 mg/kg, po administered via gavage and measured after 4 hrs by LC-MS/MS analysis; type: ADME, organism-based
[23] = target: Lysophosphatidic acid receptor 1 (Mus musculus) (UniProt P61793); experiment: In vivo antagonist activity at LPA1 receptor in C57BL/6J mouse assessed as inhibition of LPA-induced histamine release from mast cells at 100 mg/kg, po administered via gavage and measured after 4 hrs by enzyme immunoassay relative to control; type: functional, organism-based
[24] = target: Lysophosphatidic acid receptor 1 (Mus musculus) (UniProt P61793); experiment: In vivo antagonist activity at LPA1 receptor in C57BL/6J mouse assessed as inhibition of LPA-induced histamine release from mast cells at 30 mg/kg, po administered via gavage and measured after 4 hrs by enzyme immunoassay relative to control; type: functional, organism-based
[25] = target: Lysophosphatidic acid receptor 1 (Mus musculus) (UniProt P61793); experiment: In vivo antagonist activity at LPA1 receptor in C57BL/6J mouse assessed as inhibition of LPA-induced histamine release from mast cells at 10 mg/kg, po administered via gavage and measured after 1 hr by enzyme immunoassay relative to control; type: functional, organism-based

Chain of Lysophosphatidic acid receptor 1 (Mus musculus) (P61793 whole entry): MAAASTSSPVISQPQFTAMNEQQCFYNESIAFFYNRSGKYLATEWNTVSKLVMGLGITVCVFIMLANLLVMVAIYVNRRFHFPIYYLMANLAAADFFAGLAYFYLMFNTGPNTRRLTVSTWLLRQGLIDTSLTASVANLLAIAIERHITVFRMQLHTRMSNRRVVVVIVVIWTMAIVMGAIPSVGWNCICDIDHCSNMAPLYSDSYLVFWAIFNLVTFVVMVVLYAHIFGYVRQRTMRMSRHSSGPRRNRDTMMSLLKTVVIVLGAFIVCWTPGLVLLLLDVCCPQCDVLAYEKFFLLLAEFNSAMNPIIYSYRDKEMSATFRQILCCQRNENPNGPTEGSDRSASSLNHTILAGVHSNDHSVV
Chain of Lysophosphatidic acid receptor 1 (Q92633 whole entry): as the sequence (P61793 whole entry) above, with A4I, S8I, Q22P, Y40H, V61I, D193E, H194N, V269I, N331S, N335T counted along it

Structure (SMILES): COc1cc(CN(CCCCc2ccccc2)C(=O)NC2(C(=O)O)CC2)cc(OC)c1C
IC50 [1]: 2750 nM

Structure (SMILES): COc1cc(CN(CCCCc2ccccc2)C(=O)N[C@H](CC(C)C)C(=O)O)cc(OC)c1C
IC50 [1]: 3660 nM

Structure (SMILES): C[C@]12C=CC(=O)C=C1CC[C@@H]1[C@@H]2C(=O)C[C@@]2(C)[C@H]1CC[C@]2(O)C(=O)CO [PREDNISONE]
inhibition in vivo at 2 mg/kg [2]: 63%

Structure (SMILES): COc1cc([C@@H](C)N(CCCCc2ccccc2)C(=O)NC2(C(=O)O)CC(F)(F)C2)cc(OC)c1C
concentration at 8 h [3]: 596 ng/mL
inhibition [4]: 2%
inhibition [5]: 95%
concentration at 4 h [6]: 7160 ng/mL
concentration at 1 h [7]: 892 ng/mL
concentration at 1 h [8]: 4240 ng/mL
inhibition [9]: 44%
inhibition in vivo at 30 mg/kg [10]: 49%
inhibition [11]: 77%
concentration at 4 h [12]: 252 ng/mL
concentration at 8 h [13]: 175 ng/mL
Activity [14]: Dose-Dependent Effect
concentration at 8 h [15]: 2460 ng/mL
inhibition in vivo at 10 mg/kg [16]: 22%
inhibition [17]: 94%
inhibition [18]: Dose-Dependent Effect
concentration at 1 h [19]: 12100 ng/mL
inhibition in vivo at 100 mg/kg [20]: 77%
inhibition [21]: 36%
concentration at 4 h [22]: 805 ng/mL
inhibition [23]: 94%
inhibition [24]: 66%
inhibition [25]: 58%

Now from value to compound:

IC50 [1]: 586 nM
Structure (SMILES): COc1cc([C@@H](C)N(CCCCCc2ccccc2)C(=O)NC2(C(=O)O)CC(F)(F)C2)cc(OC)c1C

IC50 [1]: 2140 nM
Structure (SMILES): COc1cc(CN(CCCCc2ccccc2)C(=O)NC(C)(C)C(=O)O)cc(OC)c1C

IC50 [1]: 51.4 nM
Structure (SMILES): COc1cc([C@@H](C)N(CCCc2ccccc2)C(=O)NC2(C(=O)O)CC(F)(F)C2)cc(OC)c1C

IC50 [1]: 1790 nM
Structure (SMILES): COc1cc(CN(CCCCc2ccccc2)C(=O)NC2(C(=O)O)CCCC2)cc(OC)c1C

IC50 [1]: 470 nM
Structure (SMILES): COc1cc([C@H](C)N(CCCCc2ccccc2)C(=O)NC2(C(=O)O)CC(F)(F)C2)cc(OC)c1C

IC50 [1]: 2150 nM
Structure (SMILES): COc1cc(CN(CCCCc2ccccc2)C(=O)NC2(C(=O)O)CCCCC2)cc(OC)c1C
